In ChEMBL document CHEMBL2046330, “Structure-based design of novel benzoxazinorifamycins with potent binding affinity to wild-type and rifampin-resistant mutant Mycobacterium tuberculosis RNA polymerases” (J Med Chem, 2012):

Legend:
[1] = Inhibition of Mycobacterium tuberculosis RNA polymerase H445Y mutant by rolling circle transcription assay in the presence of sigmaA factor
[2] = tested on: Mycobacterium tuberculosis; assay: Ratio of rifalazil IC50 to compound IC50 for Mycobacterium tuberculosis RNA polymerase D435V mutant in the presence of sigmaA factor
[3] = Inhibition of Mycobacterium tuberculosis RNA polymerase S450L mutant by rolling circle transcription assay in the presence of sigmaA factor
[4] = Inhibition of Mycobacterium tuberculosis RNA polymerase D435V mutant by rolling circle transcription assay in the presence of sigmaA factor
[5] = tested on: Mycobacterium tuberculosis; assay: Ratio of rifalazil IC50 to compound IC50 for Mycobacterium tuberculosis RNA polymerase S450L mutant in the presence of sigmaA factor
[6] = Inhibition of Mycobacterium tuberculosis RNA polymerase H445Y mutant by rolling circle transcription assay in the absence of sigmaA factor
[7] = Inhibition of Mycobacterium tuberculosis RNA polymerase S450L mutant by rolling circle transcription assay in the absence of sigmaA factor
[8] = Inhibition of Mycobacterium tuberculosis RNA polymerase D435V mutant by rolling circle transcription assay in the absence of sigmaA factor

Structure (SMILES) | IC50 [1] [µM] | Ratio IC50 [2] | IC50 [3] [µM] | IC50 [4] [µM] | Ratio IC50 [5] | IC50 [6] [µM] | IC50 [7] [µM] | IC50 [8] [µM]
CO[C@H]1/C=C/O[C@@]2(C)Oc3c(C)c(O)c4c(=O)c(c5oc6cccc(OCCCCN7CCN(C(=O)Cn8ccnc8)CC7)c6nc-5c4c3C2=O)NC(=O)/C(C)=C\C=C\[C@H](C)[C@H](O)[C@@H](C)[C@@H](O)[C@@H](C)[C@H](OC(C)=O)[C@@H]1C | 574 | 26 | 122 | 13 |  |  |  | 
CCN(CC)CCOc1cccc2oc3c4c(=O)c5c(O)c(C)c6c(c5c-3nc12)C(=O)[C@@](C)(O/C=C/[C@H](OC)[C@@H](C)[C@@H](OC(C)=O)[C@H](C)[C@H](O)[C@H](C)[C@@H](O)[C@@H](C)/C=C/C=C(/C)C(=O)N4)O6 | 171 | 26 | 16 | 20 | 7 |  |  | 
CO[C@H]1/C=C/O[C@@]2(C)Oc3c(C)c(O)c4c(=O)c(c5oc6cccc(OCCCCN7CCN(CCn8ccnc8)CC7)c6nc-5c4c3C2=O)NC(=O)/C(C)=C\C=C\[C@H](C)[C@H](O)[C@@H](C)[C@@H](O)[C@@H](C)[C@H](OC(C)=O)[C@@H]1C | 437 | 26 | 18 | 9 | 7 |  |  | 
CO[C@H]1/C=C/O[C@@]2(C)Oc3c(C)c(O)c4c(O)c(c(/C=N/N5CCN(C)CC5)c(O)c4c3C2=O)NC(=O)/C(C)=C\C=C\[C@H](C)[C@H](O)[C@@H](C)[C@@H](O)[C@@H](C)[C@H](OC(C)=O)[C@@H]1C [RIFAMPIN] |  |  |  |  |  | 830 | 126 | 313
CO[C@H]1/C=C/O[C@@]2(C)Oc3c(C)c(O)c4c(=O)c(c5oc6cc(N7CCN(CC(C)C)CC7)cc(O)c6nc-5c4c3C2=O)NC(=O)/C(C)=C\C=C\[C@H](C)[C@H](O)[C@@H](C)[C@@H](O)[C@@H](C)[C@H](OC(C)=O)[C@@H]1C [RIFALAZIL] | 172 |  | 117 | 541 |  |  |  | 
